From patent publication US6777422B2, “Substituted tetrahydroisoquinolines as C5a receptor modulators” (Neurogen Corp., priority 2002, dated 2004)

target: T1, human C5a receptor (Homo sapiens, UniProt P21730); experiment: C5a receptor mediated calcium mobilization assay (Example 20); format: cell-based; conditions: differentiated U937 cells, read-out: Ca2+ (Ki in the standard assay of C5a receptor mediated calcium mobilization)
T1 construct: endogenous in cells; host or cells: U937 cells differentiated with 1 mM dibutyryl cAMP
T1 sequence (P21730 1-350): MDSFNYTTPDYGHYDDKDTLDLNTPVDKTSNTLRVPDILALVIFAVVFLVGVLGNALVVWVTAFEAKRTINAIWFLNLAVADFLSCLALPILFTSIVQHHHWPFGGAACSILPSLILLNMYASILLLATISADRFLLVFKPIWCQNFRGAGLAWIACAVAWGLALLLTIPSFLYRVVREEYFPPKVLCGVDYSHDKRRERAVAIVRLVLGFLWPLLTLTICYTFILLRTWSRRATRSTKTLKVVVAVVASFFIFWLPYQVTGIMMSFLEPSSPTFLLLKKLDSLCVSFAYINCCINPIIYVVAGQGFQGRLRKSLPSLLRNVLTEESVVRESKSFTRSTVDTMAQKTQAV
Protocol: Calcium Mobilization Assays
U937 cells are grown in differentiation media (1 mM dibutyryl cAMP in RPMI 1640 medium containing 10% fetal bovine serum) for 48 hrs at 37° C. then reseeded onto 96-well plates suitable for use in a FLIPR™ Plate Reader (Molecular Devices Corp., Sunnyvale Calif.). Cells are grown an additional 24 hours (to 70-90% confluence) before the assay. The cells are then washed once with Krebs Ringer solution. FLUO-3 calcium sensitive dye (Molecular Probes, Inc. Eugene, Oreg.) is added to 10 μg/mL and incubated with the cells at room temperature for 1 to 2 hours. The 96 well plates are then washed to remove excess dye. Fluorescence responses, measured by excitation at 480 nm and emission at 530 nm, are monitored upon the addition of human C5a to the cells to a final concentration of 0.01-30.0 nM, using the FLIPR™ device (Molecular Devices).
C. Assays for the Identification of Receptor Modulatory Agents: Antagonists and Agonists
The calcium mobilization assay described above may be readily adapted for identifying test compounds that have agonist or antagonist activity at the human C5a receptor.
For example, in order to identify antagonist compounds, differentiated U937 cells are washed and incubated with Fluo-3 dye as described above. One hour prior to measuring the fluorescence signal, a subset of the cells is incubated with 1 μM of at least one compound to be tested. The fluorescence response upon the subsequent addition of 0.3 nM (final concentration) human recombinant C5a is monitored using the FLIPR™ plate reader. Antagonist compounds elicit at least a 2-fold decrease in the fluorescence response relative to that measured in the presence of human C5a alone. Preferred antagonist compounds elicit at least a 5-fold, preferably at least a 10-fold, and more preferably at least a 20-fold decrease in the fluorescence response relative to that measured in the presence of human C5a alone.

Ki, < 1000 nM:
Cc1ccccc1C1c2ccccc2CCN1Cc1cnc(-c2ccccc2)n1C1Cc2ccccc2C1 (stereo not drawn) [Compound 33, 2-{[1-(indan-2-yl)-2-phenyl-1H-imidazol-5-yl]methyl}-1-(2-methylphenyl)-1,2,3,4-tetrahydroisoquinoline]
Cc1ccc(C2c3ccccc3CCN2CC(=O)N(Cc2ccccc2F)C2Cc3ccccc3C2)cc1C (stereo not drawn) [Compound 35, N-(indan-2-yl)-2-[1-(3,4-dimethylphenyl)-3,4-dihydroisoquinolin-2(1H)-yl]-N-(2-fluorobenzyl)acetamide]
O=C(CN1CCc2ccccc2C1c1ccc(F)cc1C(F)(F)F)N(Cc1ccccc1F)C1Cc2ccccc2C1 (stereo not drawn) [Compound 37, N-(indan-2-yl)-N-(2-fluorobenzyl)-2-[1-[4-fluoro-2-(trifluoromethyl)phenyl]-3,4-dihydroisoquinolin-2(1H)-yl]acetamide]
O=C(CN1CCc2ccccc2C1c1cc(F)ccc1C(F)(F)F)N(Cc1ccccc1F)C1Cc2ccccc2C1 (stereo not drawn) [Compound 38, N-(indan-2-yl)-N-(2-fluorobenzyl)-2-[1-[5-fluoro-2-(trifluoromethyl)phenyl]-3,4-dihydroisoquinolin-2(1H)-yl]acetamide]
O=C(CN1CCc2ccccc2[C@H]1c1ccccc1Br)N(Cc1ccccc1F)C1Cc2ccccc2C1 [Compound 40, 2-[(1S)-1-(2-bromophenyl)-3,4-dihydroisoquinolin-2(1H)-yl]-N-(indan-2-yl)-N-(2-fluorobenzyl)acetamide]
O=C(CN1CCc2ccccc2[C@H]1c1ccccc1C(F)(F)F)N(Cc1ccccc1F)C1Cc2ccccc2C1 [Compound 41, N-(indan-2-yl)-N-(2-fluorobenzyl)-2-[(1S)-1-[2-(trifluoromethyl)phenyl]-3,4-dihydroisoquinolin-2(1H)-yl]acetamide]
Cc1ccccc1[C@@H]1c2ccccc2CCN1[C@@H](C)C(=O)N(Cc1ccccc1F)C1Cc2ccccc2C1 [Compound 42, (2S)-N-(indan-2-yl)-N-(2-fluorobenzyl)-2-[(1R)-1-(2-methylphenyl)-3,4-dihydroisoquinolin-2(1H)-yl]propanamide]
O=C(CN1CCc2ccccc2C1c1ccccc1-c1ccccc1)N(Cc1ccccc1F)C1Cc2ccccc2C1 (stereo not drawn) [Compound 43, 2-[1-(1,1′-biphenyl-2-yl)-3,4-dihydroisoquinolin-2(1H)-yl]-N-(indan-2-yl)-N-(2-fluorobenzyl)acetamide]
O=C(CN1CCc2ccccc2C1c1cccc2ccccc12)N(Cc1ccccc1F)C1Cc2ccccc2C1 (stereo not drawn) [Compound 44, N-(indan-2-yl)-N-(2-fluorobenzyl)-2-[1-(1-naphthyl)-3,4-dihydroisoquinolin-2(1H)-yl]acetamide]
O=C(CN1CCc2ccccc2C12CCc1ccccc12)N(Cc1ccccc1F)C1Cc2ccccc2C1 (stereo not drawn) [Compound 45]
Cc1cccc(C2c3ccccc3CCN2CC(=O)N(Cc2ccccc2F)C2Cc3ccccc3C2)c1Cl (stereo not drawn) [Compound 47, 2-[1-(2-chloro-3-methylphenyl)-3,4-dihydroisoquinolin-2(1H)-yl]-N-(indan-2-yl)-N-(2-fluorobenzyl)acetamide]
Cc1c(F)cccc1C1c2ccccc2CCN1CC(=O)N(Cc1ccccc1F)C1Cc2ccccc2C1 (stereo not drawn) [Compound 48, N-(indan-2-yl)-N-(2-fluorobenzyl)-2-[1-(3-fluoro-2-methylphenyl)-3,4-dihydroisoquinolin-2(1H)-yl]acetamide]
O=C(CN1CCc2ccccc2C1c1cccc(C(F)(F)F)c1)N(Cc1ccccc1F)C1Cc2ccccc2C1 (stereo not drawn) [Compound 50, N-(indan-2-yl)-N-(2-fluorobenzyl)-2-[1-[3-(trifluoromethyl)phenyl]-3,4-dihydroisoquinolin-2(1H)-yl]acetamide]
O=C(CN1CCc2ccccc2C1c1cccc2c1OCC2)N(Cc1ccccc1F)C1Cc2ccccc2C1 (stereo not drawn) [Compound 53, 2-[1-(2,3-dihydro-1-benzofuran-7-yl)-3,4-dihydroisoquinolin-2(1H)-yl]-N-(indan-2-yl)-N-(2-fluorobenzyl)acetamide]
C[C@H]1CN(CC(=O)N(Cc2ccccc2F)C2Cc3ccccc3C2)[C@@H](c2ccccc2F)c2ccccc21 [Compound 54, N(indan-2-yl)-N-(2-fluorobenzyl)-2-[(1R,4R)-1-(2-fluorophenyl)-4-methyl-3,4-dihydroisoquinolin-2(1H)-yl]acetamide]
Cc1cccc(C)c1C1c2ccccc2CCN1CC(=O)N(Cc1ccccc1F)C1Cc2ccccc2C1 (stereo not drawn) [Compound 56, N-(indan-2-yl)-2-[1-(2,6-dimethylphenyl)-3,4-dihydroisoquinolin-2(1H)-yl]-N-(2-fluorobenzyl)acetamide]
Cc1ccc(F)cc1C1c2ccccc2CCN1CC(=O)N(Cc1ccccc1F)C1Cc2ccccc2C1 (stereo not drawn) [Compound 57, N-(indan-2-yl)-N-(2-fluorobenzyl)-2-[1-(5-fluoro-2-methylphenyl)-3,4-dihydroisoquinolin-2(1H)-yl]acetamide]
O=C(CN1CCc2ccccc2[C@@H]1c1ccccc1F)N(Cc1ccccc1F)C1Cc2ccccc2C1 [Compound 58, N-(indan-2-yl)-N-(2-fluorobenzyl)-2-[(1R)-1-(2-fluorophenyl)-3,4-dihydroisoquinolin-2(1H)-yl]acetamide]
C[C@H]1CN(CC(=O)N(Cc2ccccc2F)C2Cc3ccccc3C2)[C@@H](c2ccccc2Cl)c2ccccc21 [Compound 59, 2-[(1R,4R)-1-(2-chlorophenyl)-4-methyl-3,4-dihydroisoquinolin-2(1H)-yl]-N-(indan-2-yl)-N-(2-fluorobenzyl)acetamide]
C[C@@H](C(=O)N(Cc1ccccc1F)C1Cc2ccccc2C1)N1CCc2ccccc2[C@@H]1c1ccccc1F [Compound 60, (2S)-N-(indan-2-yl)-N-(2-fluorobenzyl)-2-[(1R)-1-(2-fluorophenyl)-3,4-dihydroisoquinolin-2(1H)-yl]propanamide]
Cc1ccc(C2c3ccccc3CCN2CC(=O)N(Cc2ccccc2F)C2Cc3ccccc3C2)cc1F (stereo not drawn) [Compound 61, N-(indan-2-yl)-N-(2-fluorobenzyl)-2-[1-(3-fluoro-4-methylphenyl)-3,4-dihydroisoquinolin-2(1H)-yl]acetamide]
O=C(CN1CCc2ccccc2C1c1cccc2cccnc12)N(Cc1ccccc1F)C1Cc2ccccc2C1 (stereo not drawn) [Compound 62, N-(indan-2-yl)-N-(2-fluorobenzyl)-2-(1-quinolin-8-yl-3,4-dihydroisoquinolin-2(1H)-yl)acetamide]
C[C@@H](C(=O)N(Cc1ccccc1F)C1Cc2ccccc2C1)N1CCc2ccccc2[C@@H]1c1cccc2ccccc12 [Compound 63, (2S)-N-(indan-2-yl)-N-(2-fluorobenzyl)-2-[(1R)-1-(1-naphthyl)-3,4-dihydroisoquinolin-2(1H)-yl]propanamide]
C[C@@H](C(=O)N(Cc1ccccc1F)C1Cc2ccccc2C1)N1CCc2ccccc2[C@@H]1c1ccccc1Cl [Compound 64, (2S)-2-[(1R)-1-(2-chlorophenyl)-3,4-dihydroisoquinolin-2(1H)-yl]-N-(indan-2-yl)-N-(2-fluorobenzyl)propanamide]
Cc1c(Cl)cccc1C1c2ccccc2CCN1CC(=O)N(Cc1ccccc1F)C1Cc2ccccc2C1 (stereo not drawn) [Compound 65, 2-[1-(3-chloro-2-methylphenyl)-3,4-dihydroisoquinolin-2(1H)-yl]-N-(indan-2-yl)-N-(2-fluorobenzyl)acetamide]
Cc1ccc(F)c(C2c3ccccc3CCN2CC(=O)N(Cc2ccccc2F)C2Cc3ccccc3C2)c1 (stereo not drawn) [Compound 66, N-(indan-2-yl)-N-(2-fluorobenzyl)-2-[1-(2-fluoro-5-methylphenyl)-3,4-dihydroisoquinolin-2(1H)-yl]acetamide]
Cc1cccc([C@H]2c3ccccc3CCN2[C@@H](C)C(=O)N(Cc2ccccc2F)C2Cc3ccccc3C2)c1C [Compound 67, (2S)-N-(indan-2-yl)-2-[(1R)-1-(2,3-dimethylphenyl)-3,4-dihydroisoquinolin-2(1H)-yl]-N-(2-fluorobenzyl)propanamide]
